# Results reported in patent US20210147811A1, “METHODS FOR IN VITRO EXPANSION OF ADULT TISSUE STEM CELLS” (CEDARS-SINAI MEDICAL CENTER, priority 2018, published 2021).
# How the values were obtained:
# [1] = tested on: murine pre-cultured distal total epithelial cells; assay: 3D organoid culture of murine distal total epithelial cells pre-cultured 24 hrs on collagen coated plates; type: cell-based; settings: pre-cultured on collagen coated plates for 24 hrs after isolation, +SB431542
# Description: FIG. 4. Effect of pre-culturing—Day 3. Pre-culturing cells on collagen coated plates for 24 hrs after initial isolation increases the rate of organoid formation, with organoids being visible as early as day 3 in culture.
# FIG. 5. Effect of pre-culturing—Day 8. Addition of Pifithrin α causes an increase in organoids size, while addition of ROCKi causes an increase in the colony forming efficiency. This effect is more pronounced when cells are pre-cultured for 24 hrs on collagen coated plates after initial isolation.
# FIG. 14. Effect of inhibitors on murine pre-cultured distal total epithelial cells in (+SB431542). Addition Pifithrin alpha increases organoid size while addition of ROCKi increases the colony forming efficiency when murine distal total epithelial cells (isolated from the lung without trachea) are pre-cultured on collagen coated plates for 24 hrs prior after initial isolation. The effect on size is more pronounced when cells are precultured for 24 hrs on collagen coated plates after initial isolation. The drop in CFE in the Pifithrin alpha+ROCKi group is likely due space and nutrient availability constraints due to the large number of organoids per well.
# ROCKi increases the colony forming efficiency when murine distal total epithelial cells (isolated from the lung without trachea) are pre-cultured on collagen coated plates for 24 hrs prior after initial isolation. The effect on size is more pronounced when cells are precultured for 24 hrs on collagen coated plates after initial isolation. The drop in CFE in the Pifithrin alpha+ROCKi group is likely due space and nutrient availability constraints due to the large number of organoids per well. Addition of both ROCKi and Pifithrin alpha (in presence of SB431542) increases the colony forming efficiency of freshly isolated alveolar type II cells (regional stem cells which maintain the epithelium of the air sacs in the lung). The effect is synergistic for their combined use, similar to that seen for total distal epithelial cells in the previous figures.
# lung stem cells = assay: In vitro organoid assays of clonal expansion of lung stem cells; type: cell-based; settings: combination of p53 inhibitor with ROCK inhibitor (and TGFb inhibitors)
# Description: Methods have been developed for expansion of stem cells using a combination of irradiated NIH-3T3 fibroblasts and a ROCK inhibitor (Y27632). […] Preliminary studies by the Inventors have shown that pharmacologic inhibition of p53 results in greater clonal expansion of lung stem cells compared to use of ROCK inhibitor Y27632 alone. Effects of combined treatment with Pifithrin-α and Y27632 are additive. Future studies will determine reversibility of Pifirthrin-α effects on stem cell expansion and differentiation. This includes: 1) validating that the observed increase in clonogenic potential of lung stem cells is the result of stem cell expansion, 2) application of the aforementioned pharmacologic intervention during in vitro stem cell expansion enhances their viability following cryopreservation, 3) that application of the aforementioned pharmacologic intervention during in vitro stem cell expansion enhances to functionally engraft into lung tissue following orthotopic lung transplantation, 4) that stem cells expanded under these conditions retain full capacity for differentiation into specialized lung epithelial cell types and 5) that established culture conditions can be used to expand human lung stem cells. […]
compound,measurement,setting,value
Cc1ccc(C(=O)Cn2c3c(sc2=N)CCCC3)cc1 [Pifithrin α],organoid size,[1],increase
same,organoid size,[1]; listed as Pifithrin alpha,increases
same,effect of combined use on clonal expansion / clonogenic potential of lung stem cells,lung stem cells,additive
